We go through two molecules from patent US6555372B1, “Composition for enhancing cellular immunogenicity comprising alpha-glycosylceramides” (Kirin Beer Kabushiki Kaisha, priority 1997, dated 2003).

Assay [1] has as its system Mouse T lymphoma EL-4 cells. Description: Therapeutic effect of treated tumor cells in EL-4 liver metastasis model mice. In kind it is in vivo. As for the experimental part: Mouse T lymphoma EL-4 cells (4×10^5 cells/mouse) were implanted intravenously into the tail of BDF1 mice (female, 6 weeks of age, Japan SLC, Inc.), 6 animals in one group, to prepare cancer-bearing mice. The days of tumor implantation was set to be day 0. On the same day, a vehicle (0.1% DMSO), KRN 7000 (100 ng/ml) or AGL-583 (100 ng/ml) was added to EL-4 cells which had been inoculated into a fresh medium, in the same manner as in Pharmacological Test 1 above. One day after the start of incubation, cells of EL-4/V, EL-4/KRN and EL-4/583 cultured in the presence of the vehicle, KRN 7000 and AGL-583, respectively, were recovered and washed twice with the medium, after which the recovered cells were immunized intravenously into the tail of the cancer-bearing mice at 1×10^5 cells/mouse. The resulting antitumor effect was compared.
EL-4 implanted mice generally died in about 30 days owing to the tumor formation and growth in several organs, particularly in the liver. Therefore, antitumor effect was evaluated by observing the survival period of cancer-bearing hosts.

The test system of assay [2] is B16, EL-4, Lewis lung carcinoma, Colon 26, L1210 and Meth A mouse tumor cells. As to the kind of experiment: Effect of α-glycosylceramide on tumorigenicity of tumor cells. In kind it is in vivo. The following applies: six mouse tumor cell lines cultured 1 day with 100 ng/ml, implanted i.v. into C57BL/6 or BALB/c mice; FIG. 4. An excerpt:
Six kinds of mouse tumor cells, i.e., three kinds of C57BL/6 mouse-derived tumor cells, i.e., murine melanoma B16 cells (Dainippon Pharmaceutical Co., Ltd.), mouse T lymphoma EL-4 cells (Dainippon Pharmaceutical Co., Ltd.) and mouse Lewis lung carcinoma cells (Dainippon Pharmaceutical Co., Ltd.), and three kinds of BALB/c-mouse derived tumor cells, i.e., mouse colon cancer cell Colon 26 (Japanese Foundation for Cancer Research), mouse leukemia L1210 cells (Japanese Foundation for Cancer Research) and mouse fibrosarcoma Meth A cells (Japanese Foundation for Cancer Research) were cultured with or without an addition of a vehicle (0.1% DMSO) or KRN 7000 (100 ng/ml) for one day as described in Pharmacological Tests above. The resulting tumor cells were washed twice with a medium, suspended again in a fresh medium and implanted intravenously into the tail of corresponding mice. […]
The tumor cells implanted intravenously into the tail formed metastasized nodules in various organs, particularly in the liver or lung, and ultimately killed the animals. Accordingly, the effect of the tumor cells on tumorigenicity (a rate of tumor formation, the ability to form tumor burden) was evaluated by observing the survival period.

[3] abbreviates: EL-4-bearing BDF1 mice immunized i.v. on day 1 with 1×10^5 EL-4 cells cultured 1 day with 100 ng/ml compound, vs control mice with tumor only, FIG. 2.

As for `CCCCCCCCCCCCCCCCCCCCCCCCCC(=O)N[C@@H](CO[C@H]1O[C@H](CO)[C@H](O)[C@H](O)[C@H]1O)[C@H](O)[C@H](O)CCCCCCCCCCCCCC` [KRN 7000, (2S,3S,4R)-1-(α-D-galactopyranosyloxy)-2-hexacosanoylamino-3,4-octadecanediol], in assay [1] (setting [3]), the survival period entry is “markedly prolonged”. In assay [1] (EL-4-bearing BDF1 mice immunized i.v. with 1×10^5 EL-4 cells cultured 1 day with 100 ng/ml compound, 6 animals per group), the “treated mice survived for a long term” value stood at 33.3%. The “tumorigenicity of treated tumor cells” value in assay [2] was “diminished or completely abolished”.
As for `CCCCCCCCCCCCCCCCCCCCCCCCCC(=O)N[C@@H](CO[C@@H]1O[C@H](CO)[C@H](O)[C@H](O)[C@H]1O)[C@H](O)[C@H](O)CCCCCCCCCCCCCC` [AGL-583, reference compound], in assay [1] (setting [3]), the antitumor effect entry is given as “no evident antitumor effect was observed” and the survival period entry is reported as “not prolonged at all”.
